From patent publication US6737383B1, “Herbicidal oxadiazolidines” (priority 1999, dated 2004)

Assays:
Settings in all cases: Preemergence, 0 to 100 scale, 0 no injury, 100 complete control
[1] = system: common ragweed; assay: Test D common ragweed; type: in vivo, Ambrosia elatior
Description: (§1) Seeds, tubers, or plant parts of Alexandergrass (Brachiaria plantaginea), bermuda-grass (Cynodon dactylon), common pursiane (Portulaca oleracea), common ragweed (Ambrosia elatior), common groundsel (Senecio vulgaris), dallisgrass (Paspalum dilatatum), goosegrass (Eleusine indica), guineagrass (Panicum maximum), itchgrass (Rottboellia exaltata), Johnson grass (Sorghum halepense), large crabgrass (Digitaria sanguinalis), pitted morningglory (Ipomoea lacunosa), purple nutsedge (Cyperus rotundus), sandbur (Cenchrus echinatus), sourgrass (Trichachne insularis), Spanishneedles (Bidens bipinnata), surinam grass (Brachiaria decumbens) and tall mallow (Malva sylvestris) were planted into greenhouse pots of flats containing greenhouse planting medium. Plant species were grown in separate pots or individual compartments. Preemergence applications were made within one day of planting the seed or plant part.
(§2) Test chemicals were formulated in a non-phytotoxic solvent mixture which included a surfactant and applied preemergence to the surface of the pot containing seeds in a sandy loam soil. Untreated control pots and treated pots were placed in the greenhouse for growth and visually evaluated for injury 14 to 21 days after herbicide application. Plant response ratings, summarized in Table C, are based on a 0 to 100 scale where 0 is no injury and 100 is complete control. A dash (−) response means no test result.

[2] = system: dallisgrass; assay: Test D dallisgrass; type: in vivo, Paspalum dilatatum
Summary of the method: (§3)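 Greenhouse pots, seeds in sandy loam; compounds formulated in non-phytotoxic solvent with surfactant; preemergence treatments went on the soil surface within one day of planting. Injury rated visually 14 to 21 days after application on a 0 (none) to 100 (complete control) scale.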

[3] = system: common groundsel; assay: Test D common groundsel; type: in vivo, Senecio vulgaris
Summary of the method: as §3

[4] = system: tall mallow; assay: Test D tall mallow; type: in vivo, Malva sylvestris
Description: as §1, §2

[5] = system: sandbur; assay: Test D sandbur; type: in vivo, Cenchrus echinatus
Description: as §1, §2

[6] = system: Alexandergrass; assay: Test D Alexandergrass; type: in vivo, Brachiaria plantaginea
Description: as §1, §2

[7] = system: purple nutsedge; assay: Test D purple nutsedge; type: in vivo, Cyperus rotundus
Summary of the method: as §3

[8] = system: itchgrass; assay: Test D itchgrass; type: in vivo, Rottboellia exaltata
Description: as §1, §2

[9] = system: common pursiane; assay: Test D common purslane; type: in vivo, Portulaca oleracea
Summary of the method: as §3

[10] = system: large crabgrass; assay: Test D large crabgrass; type: in vivo, Digitaria sanguinalis
Description: as §1, §2

[11] = system: surinam grass; assay: Test D surinam grass; type: in vivo, Brachiaria decumbens
Description: as §1, §2

[12] = system: pitted morningglory; assay: Test D pitted morningglory; type: in vivo, Ipomoea lacunosa
Summary of the method: as §3

[13] = system: guineagrass; assay: Test D guineagrass; type: in vivo, Panicum maximum
Description: as §1, §2

[14] = system: Johnson grass; assay: Test D Johnson grass; type: in vivo, Sorghum halepense
Summary of the method: as §3

[15] = system: Spanishneedles; assay: Test D Spanishneedles; type: in vivo, Bidens bipinnata
Description: as §1, §2

[16] = system: bermuda-grass; assay: Test D bermudagrass; type: in vivo, Cynodon dactylon
Summary of the method: as §3

Cc1cccc(C)c1-n1c(=O)on(C(=O)N(c2ccc(F)cc2)C(C)C)c1=O [Compound 18]
Plant response rating, C. ragweed ([1]; Rate 16 g/ha): 0
Plant response rating, C. ragweed ([1]; Rate 32 g/ha): 0
Plant response rating, C. ragweed ([1]; Rate 64 g/ha): 0
Plant response rating, C. ragweed ([1]; Rate 125 g/ha): 0
Plant response rating, Dallisgrass ([2]; Rate 16 g/ha): 0
Plant response rating, Dallisgrass ([2]; Rate 32 g/ha): 0
Plant response rating, Dallisgrass ([2]; Rate 64 g/ha): 85
Plant response rating, Dallisgrass ([2]; Rate 125 g/ha): 100
Plant response rating, Com. groundsel ([3]; Rate 16 g/ha): 0
Plant response rating, Com. groundsel ([3]; Rate 32 g/ha): 0
Plant response rating, Com. groundsel ([3]; Rate 64 g/ha): 0
Plant response rating, Com. groundsel ([3]; Rate 125 g/ha): 0
Plant response rating, Tall Mallow ([4]; Rate 16 g/ha): 0
Plant response rating, Tall Mallow ([4]; Rate 32 g/ha): 0
Tall Mallow plant response rating ([4]; Rate 64 g/ha): 0
Tall Mallow plant response rating ([4]; Rate 125 g/ha): 0
Plant response rating, Sandbur ([5]; Rate 16 g/ha): 0
Plant response rating, Sandbur ([5]; Rate 32 g/ha): 0
Sandbur plant response rating ([5]; Rate 64 g/ha): 0
Sandbur plant response rating ([5]; Rate 125 g/ha): 0
Plant response rating, Alexandergrass ([6]; Rate 16 g/ha): 0
Plant response rating, Alexandergrass ([6]; Rate 32 g/ha): 0
Plant response rating, Alexandergrass ([6]; Rate 64 g/ha): 0
Plant response rating, Alexandergrass ([6]; Rate 125 g/ha): 30
Plant response rating, Purple nutsedge ([7]; Rate 16 g/ha): 0
Plant response rating, Purple nutsedge ([7]; Rate 32 g/ha): 0
Purple nutsedge plant response rating ([7]; Rate 64 g/ha): 0
Purple nutsedge plant response rating ([7]; Rate 125 g/ha): 0
Plant response rating, Itchgrass ([8]; Rate 16 g/ha): 0
Plant response rating, Itchgrass ([8]; Rate 32 g/ha): 0
Plant response rating, Itchgrass ([8]; Rate 64 g/ha): 0
Plant response rating, Itchgrass ([8]; Rate 125 g/ha): 0
Plant response rating, C. purslane ([9]; Rate 16 g/ha): 0
Plant response rating, C. purslane ([9]; Rate 32 g/ha): 0
Plant response rating, C. purslane ([9]; Rate 64 g/ha): 0
Plant response rating, C. purslane ([9]; Rate 125 g/ha): 0
Plant response rating Large crabgrass ([10]; Rate 16 g/ha): 0
Plant response rating Large crabgrass ([10]; Rate 32 g/ha): 0
Plant response rating Large crabgrass ([10]; Rate 64 g/ha): 98
Plant response rating Large crabgrass ([10]; Rate 125 g/ha): 100
Plant response rating, Surinam grass ([11]; Rate 16 g/ha): 0
Plant response rating, Surinam grass ([11]; Rate 32 g/ha): 0
Surinam grass plant response rating ([11]; Rate 64 g/ha): 0
Surinam grass plant response rating ([11]; Rate 125 g/ha): 20
Plant response rating, P. morninglory ([12]; Rate 16 g/ha): 0
Plant response rating, P. morninglory ([12]; Rate 32 g/ha): 0
Plant response rating, P. morninglory ([12]; Rate 64 g/ha): 0
Plant response rating, P. morninglory ([12]; Rate 125 g/ha): 0
Plant response rating, Guineagrass ([13]; Rate 16 g/ha): 0
Plant response rating, Guineagrass ([13]; Rate 32 g/ha): 0
Plant response rating, Guineagrass ([13]; Rate 64 g/ha): 30
Plant response rating, Guineagrass ([13]; Rate 125 g/ha): 65
Plant response rating Johnsongrass ([14]; Rate 16 g/ha): 0
Plant response rating Johnsongrass ([14]; Rate 32 g/ha): 0
Plant response rating Johnsongrass ([14]; Rate 64 g/ha): 0
Plant response rating Johnsongrass ([14]; Rate 125 g/ha): 0
Plant response rating, Spanishneedles ([15]; Rate 16 g/ha): 0
Plant response rating, Spanishneedles ([15]; Rate 32 g/ha): 0
Spanishneedles plant response rating ([15]; Rate 64 g/ha): 0
Spanishneedles plant response rating ([15]; Rate 125 g/ha): 0
Plant response rating, Bermudagrass ([16]; Rate 16 g/ha): 40
Plant response rating, Bermudagrass ([16]; Rate 32 g/ha): 60
Plant response rating, Bermudagrass ([16]; Rate 64 g/ha): 85
Plant response rating, Bermudagrass ([16]; Rate 125 g/ha): 100

CCCn1c(=O)on(C(=O)N(c2ccc(F)cc2F)C(C)C)c1=O [Compound 130]
Plant response rating, C. ragweed ([1]; Rate 64 g/ha): 30
Plant response rating, Dallisgrass ([2]; Rate 64 g/ha): 100
Plant response rating, Com. groundsel ([3]; Rate 64 g/ha): 0
Tall Mallow plant response rating ([4]; Rate 64 g/ha): 85
Sandbur plant response rating ([5]; Rate 64 g/ha): 100
Plant response rating, Alexandergrass ([6]; Rate 64 g/ha): 98
Purple nutsedge plant response rating ([7]; Rate 64 g/ha): 0
Plant response rating, Itchgrass ([8]; Rate 64 g/ha): 80
Plant response rating, C. purslane ([9]; Rate 64 g/ha): 0
Plant response rating Large crabgrass ([10]; Rate 64 g/ha): 100
Surinam grass plant response rating ([11]; Rate 64 g/ha): 80
Plant response rating, P. morninglory ([12]; Rate 64 g/ha): 65
Plant response rating, Guineagrass ([13]; Rate 64 g/ha): 100
Plant response rating Johnsongrass ([14]; Rate 64 g/ha): 65
Spanishneedles plant response rating ([15]; Rate 64 g/ha): 60
Plant response rating, Bermudagrass ([16]; Rate 64 g/ha): 100
